A value given as a limit tells only on which side of the number the result lay.

Common to all, as to type: biochemical
In assay [1] the target is T1, NUAK2 (h) (Homo sapiens, UniProt Q9H093).
T1 construct: This assay was done radiometrically using full-length, recombinant enzyme; purchased Eurofins
T1 sequence (Q9H093 1-628): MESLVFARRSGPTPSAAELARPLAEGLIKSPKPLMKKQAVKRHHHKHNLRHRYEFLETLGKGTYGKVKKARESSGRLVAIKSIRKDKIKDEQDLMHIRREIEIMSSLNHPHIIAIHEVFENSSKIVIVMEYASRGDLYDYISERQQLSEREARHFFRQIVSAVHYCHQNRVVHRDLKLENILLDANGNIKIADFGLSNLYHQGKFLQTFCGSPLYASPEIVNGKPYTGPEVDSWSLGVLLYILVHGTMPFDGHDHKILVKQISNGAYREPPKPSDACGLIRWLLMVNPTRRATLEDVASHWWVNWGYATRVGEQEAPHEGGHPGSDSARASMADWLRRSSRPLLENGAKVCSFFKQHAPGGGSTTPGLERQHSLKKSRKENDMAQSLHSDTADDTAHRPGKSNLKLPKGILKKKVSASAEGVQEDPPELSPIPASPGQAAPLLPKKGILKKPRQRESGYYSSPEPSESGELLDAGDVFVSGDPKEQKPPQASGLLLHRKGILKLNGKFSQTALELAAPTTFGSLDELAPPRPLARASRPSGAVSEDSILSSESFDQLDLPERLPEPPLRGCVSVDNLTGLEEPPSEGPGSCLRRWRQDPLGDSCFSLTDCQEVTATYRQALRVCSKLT
The assay is described as follows: NUAK2 enzymatic assay (radiometric, Eurofins). The conditions noted are these: full-length recombinant enzyme. The protocol:
(§1) To identify small molecule NUAK inhibitors, a biochemical NUAK2 enzymatic assay were outsourced to Eurofins. This assay was done radiometrically using full-length, recombinant enzyme. NUAK2 (h) was incubated with 8 mM MOPS pH 7.0, 0.2 mM EDTA, 300 μM […], 10 mM magnesium acetate and […] (specific activity and concentration as required). The reaction was initiated by the addition of the Mg/ATP mix. After incubation for 40 minutes at room temperature, the reaction was stopped by the addition of phosphoric acid to a concentration of 0.5%. 10 μL of the reaction was then spotted onto a P30 filtermat and washed four times for 4 minutes in 0.425% phosphoric acid and once in methanol prior to drying and scintillation counting. Compounds were routinely counter-screened against Aurora A and NUAK1. The results are shown in Table 1 where IC50's are reported in the following ranges: A: 0.1-10 nM; B: 11-100 nM; C: 101-1000 nM; D: >1000 nM for the compounds of Formula (I)

The target in assay [2] is T2, NUAK1 (Homo sapiens, UniProt O60285).
T2 sequence (O60285 1-661): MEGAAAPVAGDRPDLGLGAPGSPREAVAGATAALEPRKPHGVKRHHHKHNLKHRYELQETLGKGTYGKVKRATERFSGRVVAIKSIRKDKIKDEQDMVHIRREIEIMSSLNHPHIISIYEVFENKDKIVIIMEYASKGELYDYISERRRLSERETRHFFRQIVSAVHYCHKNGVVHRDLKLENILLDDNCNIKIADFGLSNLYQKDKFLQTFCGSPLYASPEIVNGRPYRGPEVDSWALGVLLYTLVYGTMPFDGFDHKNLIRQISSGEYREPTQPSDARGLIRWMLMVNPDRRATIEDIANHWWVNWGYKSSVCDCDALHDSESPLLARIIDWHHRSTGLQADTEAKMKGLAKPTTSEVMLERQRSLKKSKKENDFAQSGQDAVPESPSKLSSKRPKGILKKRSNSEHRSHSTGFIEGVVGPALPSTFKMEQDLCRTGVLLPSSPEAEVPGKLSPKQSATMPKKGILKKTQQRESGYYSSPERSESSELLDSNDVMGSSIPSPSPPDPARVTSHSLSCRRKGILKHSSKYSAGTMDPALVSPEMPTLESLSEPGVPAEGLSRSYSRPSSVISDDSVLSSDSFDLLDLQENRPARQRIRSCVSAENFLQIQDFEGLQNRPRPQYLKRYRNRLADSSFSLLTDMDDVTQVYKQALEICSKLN
Nature of the assay: Counter-screen against NUAK1. The protocol:
as §1
(In general: Counterscreens check selectivity or assay interference.)

Assay [3] addresses T3, Aurora A (Homo sapiens, UniProt O14965).
T3 sequence (O14965 1-403): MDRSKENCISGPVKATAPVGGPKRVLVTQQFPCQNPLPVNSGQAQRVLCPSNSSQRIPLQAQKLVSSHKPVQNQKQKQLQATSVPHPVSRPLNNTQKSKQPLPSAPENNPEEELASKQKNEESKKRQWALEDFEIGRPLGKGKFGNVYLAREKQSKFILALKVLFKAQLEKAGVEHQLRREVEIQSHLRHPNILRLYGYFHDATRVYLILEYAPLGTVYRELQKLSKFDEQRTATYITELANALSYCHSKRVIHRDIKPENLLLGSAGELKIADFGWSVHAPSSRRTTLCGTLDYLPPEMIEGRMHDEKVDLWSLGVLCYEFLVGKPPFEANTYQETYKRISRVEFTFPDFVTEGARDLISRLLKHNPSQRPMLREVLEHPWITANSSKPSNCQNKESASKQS
Nature of the assay: Counter-screen against Aurora A. The conditions noted are these: read-out: AUR-A (IC50). The procedure:
as §1

A word on the IC50: it is the midpoint of a concentration-inhibition curve. With `CN1CCN(c2ccc(Nc3ncc(Cl)c(Nc4cccc5c4C(=O)NC5)n3)c(OC(F)F)c2)CC1` [Compound I-1, 7-((5-chloro-2-((2-(difluoromethoxy)-4-(4-methylpiperazin-1-yl)phenyl)amino)pyrimidin-4-yl)amino)isoindolin-1-one], the results for the IC50 in assay [1], in assay [2] and in assay [3] were 0.1 to 10 nM, 11 to 100 nM and 101 to 1000 nM, respectively.

For the compound `CCN1CCN(c2ccc(Nc3nccc(Nc4cccc5c4C(=O)NC5)n3)cc2F)CC1` [Compound I-2, 7-((2-((4-(4-ethylpiperazin-1-yl)-3-fluorophenyl)amino)pyrimidin-4-yl)amino)isoindolin-1-one], the IC50 in assay [1] lay within 11 to 100 nM; in assay [2], 0.1 to 10 nM; in assay [3] it was 0.1 to 10 nM.

For the compound `COc1cc2c(cc1Nc1ncc(Cl)c(Nc3cccc4c3C(=O)NC4)n1)CN(C)CC2` [Compound I-3, 7-((5-chloro-2-((6-methoxy-2-methyl-1,2,3,4-tetrahydroisoquinolin-7-yl)amino)pyrimidin-4-yl)amino)isoindolin-1-one], the values for the IC50 in assay [1], in assay [2] and in assay [3] were 11 to 100 nM, 101 to 1000 nM and 101 to 1000 nM, respectively.

Take `CCN1CCN(c2ccc(Nc3ncc(Cl)c(Nc4cccc5c4C(=O)NC5)n3)cc2F)CC1` [Compound I-4, 7-((5-chloro-2-((4-(4-ethylpiperazin-1-yl)-3-fluorophenyl)amino)pyrimidin-4-yl)amino)isoindolin-1-one]: the IC50 in assay [1] was 0.1 to 10 nM; in assay [2] it was 11 to 100 nM; in assay [3] it was 0.1 to 10 nM.

For the compound `COc1cc(N2CCN(C)CC2)ccc1Nc1ncc(Cl)c(Nc2cccc3c2C(=O)NC3)n1` [Compound I-5, 7-((5-chloro-2-((2-methoxy-4-(4-methylpiperazin-1-yl)phenyl)amino)pyrimidin-4-yl)amino)isoindolin-1-one], the IC50 in assay [1] lay in the range of 0.1 to 10 nM; in assay [2] it was 11 to 100 nM; in assay [3], 11 to 100 nM.

Take `COc1c(Nc2ncc(Cl)c(Nc3cccc4c3C(=O)NC4)n2)ccc(N2CCN3CCCC3C2)c1F` (stereo not shown) [Compound I-6, 7-((5-chloro-2-((3-fluoro-4-(hexahydropyrrolo[1,2-a]pyrazin-2(1H)-yl)-2-methoxyphenyl)amino)pyrimidin-4-yl)amino)isoindolin-1-one]: the IC50 in assay [1] is 11 to 100 nM; in assay [2], 11 to 100 nM; in assay [3], 101 to 1000 nM.

As to `COc1c(Nc2ncc(Cl)c(Nc3cccc4c3C(=O)NC4)n2)ccc(N2CCC(N3CCN(C)CC3)CC2)c1F` [Compound I-7, 7-((5-chloro-2-((3-fluoro-2-methoxy-4-(4-(4-methylpiperazin-1-yl)piperidin-1-yl)phenyl)amino)pyrimidin-4-yl)amino)isoindolin-1-one], the IC50 in assay [1] lay within 11 to 100 nM; in assay [2] it was 11 to 100 nM; in assay [3], 101 to 1000 nM.

For the compound `CN1CCN(c2ccc(Nc3ncc(Cl)c(Nc4cccc5c4C(=O)NC5)n3)c(C(F)(F)F)c2)CC1` [Compound I-8, 7-((5-chloro-2-((4-(4-methylpiperazin-1-yl)-2-(trifluoromethyl)phenyl)amino)pyrimidin-4-yl)amino)isoindolin-1-one], the IC50 in assay [1] lay in the range of 11 to 100 nM; in assay [2], 101 to 1000 nM; in assay [3], 101 to 1000 nM.

Turning to `CN1CCN(C2CCN(c3ccc(Nc4ncc(Cl)c(Nc5cccc6c5C(=O)NC6)n4)c(OC(F)F)c3)CC2)CC1` [Compound I-9, 7-((5-chloro-2-((2-(difluoromethoxy)-4-(4-(4-methylpiperazin-1-yl)piperidin-1-yl)phenyl)amino)pyrimidin-4-yl)amino)isoindolin-1-one], the figures for the IC50 in assay [1], in assay [2] and in assay [3] were 0.1 to 10 nM, 11 to 100 nM and 101 to 1000 nM, respectively.

In the case of `CN1CCc2ccc(Nc3ncc(Cl)c(Nc4cccc5c4C(=O)NC5)n3)cc2C1` [Compound I-10, 7-((5-chloro-2-((2-methyl-1,2,3,4-tetrahydroisoquinolin-7-yl)amino)pyrimidin-4-yl)amino)isoindolin-1-one], the IC50 in assay [1], in assay [2] and in assay [3] was 0.1 to 10 nM throughout.

For `CC(C)Oc1cc(N2CCN(C)CC2)ccc1Nc1ncc(Cl)c(Nc2cccc3c2C(=O)NC3)n1` [Compound I-11, 7-((5-chloro-2-((2-isopropoxy-4-(4-methylpiperazin-1-yl)phenyl)amino)pyrimidin-4-yl)amino)isoindolin-1-one], the IC50 in assay [1] was 101 to 1000 nM; in assay [2], more than 1000 nM; in assay [3], more than 1000 nM.

Take `COc1cc2c(cc1Nc1ncc(Cl)c(Nc3cccc4c3C(=O)NC4)n1)CCN(C)C2` [Compound I-12, 7-((5-chloro-2-((7-methoxy-2-methyl-1,2,3,4-tetrahydroisoquinolin-6-yl)amino)pyrimidin-4-yl)amino)isoindolin-1-one]: the IC50 is 0.1 to 10 nM in assay [1], 11 to 100 nM in assay [2] and more than 1000 nM in assay [3].

As to `COc1nc(N2CCC(N3CCN(C)CC3)CC2)ccc1Nc1ncc(Cl)c(Nc2cccc3c2C(=O)NC3)n1` [Compound I-13, 7-((5-chloro-2-((2-methoxy-6-(4-(4-methylpiperazin-1-yl)piperidin-1-yl)pyridin-3-yl)amino)pyrimidin-4-yl)amino)isoindolin-1-one], the IC50 was 0.1 to 10 nM in assay [1], 11 to 100 nM in assay [2] and 11 to 100 nM in assay [3].

In the case of `COc1nc(N2CCN(C)CC2)ccc1Nc1ncc(Cl)c(Nc2cccc3c2C(=O)NC3)n1` [Compound I-14, 7-((5-chloro-2-((2-methoxy-6-(4-methylpiperazin-1-yl)pyridin-3-yl)amino)pyrimidin-4-yl)amino)isoindolin-1-one], the IC50 lay within 11 to 100 nM in assay [1], 0.1 to 10 nM in assay [2] and 11 to 100 nM in assay [3].

As for `Cc1c(N2CCN(C)CC2)ccc(Nc2ncc(Cl)c(Nc3cccc4c3C(=O)NC4)n2)c1Cl` [Compound I-15, 7-((5-chloro-2-((2-chloro-3-methyl-4-(4-methylpiperazin-1-yl)phenyl)amino)pyrimidin-4-yl)amino)isoindolin-1-one], the IC50 in assay [1] lay in the range of 11 to 100 nM; in assay [2] it was 11 to 100 nM; in assay [3], 101 to 1000 nM.

Consider `CN1CCN(c2ccc(Nc3ncc(Cl)c(Nc4ccc(F)c5c4C(=O)NC5)n3)c(OC(F)F)c2)CC1` [Compound I-84, 7-((5-chloro-2-((2-(difluoromethoxy)-4-(4-methylpiperazin-1-yl)phenyl)amino)pyrimidin-4-yl)amino)-4-fluoroisoindolin-1-one], for which the results for the IC50 in assay [1] and in assay [3] were 0.1 to 10 nM and more than 1000 nM, respectively.

As for `COc1cc(CN(C)C)ccc1Nc1ncc(Cl)c(Nc2ccc(F)c3c2C(=O)NC3)n1` [Compound I-85, 7-((5-chloro-2-((4-((dimethylamino)methyl)-2-methoxyphenyl)amino)pyrimidin-4-yl)amino)-4-fluoroisoindolin-1-one], the IC50 in assay [1] is 11 to 100 nM; in assay [3], more than 1000 nM.

Values taken from US12643886B2 (Ontario Institute for Cancer Research (OICR), priority 2021, dated 2026).
